Experimental findings from patent publication US20230348376A1 (TEIJIN PHARMA LIMITED, priority 2020, published 2023) are described below.

The assay concerns the target T1, human VDR (Homo sapiens, UniProt P11473).
T1 sequence (P11473 1-427): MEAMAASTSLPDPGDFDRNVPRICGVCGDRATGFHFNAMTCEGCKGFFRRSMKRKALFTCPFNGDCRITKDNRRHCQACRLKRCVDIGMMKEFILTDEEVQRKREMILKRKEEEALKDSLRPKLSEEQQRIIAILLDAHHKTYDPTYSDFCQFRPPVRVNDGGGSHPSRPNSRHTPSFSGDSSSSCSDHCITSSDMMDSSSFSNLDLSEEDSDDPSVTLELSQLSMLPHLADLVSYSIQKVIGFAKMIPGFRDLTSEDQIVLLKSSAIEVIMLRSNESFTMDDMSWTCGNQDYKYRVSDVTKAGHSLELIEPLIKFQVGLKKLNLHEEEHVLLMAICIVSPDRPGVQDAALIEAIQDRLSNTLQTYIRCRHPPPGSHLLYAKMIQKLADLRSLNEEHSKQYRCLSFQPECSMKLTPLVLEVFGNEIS
T1 sequence (P19793 1-462 partner): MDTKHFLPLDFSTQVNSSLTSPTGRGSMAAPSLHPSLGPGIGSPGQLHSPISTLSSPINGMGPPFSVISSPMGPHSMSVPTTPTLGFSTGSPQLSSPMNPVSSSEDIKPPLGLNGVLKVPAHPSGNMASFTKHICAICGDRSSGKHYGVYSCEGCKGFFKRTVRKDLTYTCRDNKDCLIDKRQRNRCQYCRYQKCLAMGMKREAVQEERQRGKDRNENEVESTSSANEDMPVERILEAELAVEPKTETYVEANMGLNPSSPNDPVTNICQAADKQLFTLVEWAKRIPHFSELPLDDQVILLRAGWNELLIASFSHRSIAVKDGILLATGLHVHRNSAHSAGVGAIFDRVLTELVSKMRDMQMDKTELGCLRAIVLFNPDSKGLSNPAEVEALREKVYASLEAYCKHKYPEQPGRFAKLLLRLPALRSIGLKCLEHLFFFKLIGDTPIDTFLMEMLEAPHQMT
Description: Evaluation of VDR transcription activity in human osteoblasts (HOS cells), luciferase reporter. The settings on record: Activity (EC50, VDR transcription activity), HOS cells transfected with human VDR, human RXRα and DR3 luciferase reporter; 21 hours.
Molecule `C=C1[C@H](O)CC(=C/C=C2\CCC[C@]3(C)[C@@H]([C@@H](C)CN4CCC(C(F)(F)F)CC4)CC[C@@H]23)C[C@H]1O` [Compound C060, (1R,3R)-5-(2-((1R,3aS,7aR,E)-7a-methyl-1-((R)-1-(4-(trifluoromethyl)piperidin-1-yl)propan-2-yl)octahydro-4H-inden-4-ylidene)ethylidene)-2-methylenecyclohexane-1,3-diol] gave an EC50 of 1 to 10 nM.
For `C=C1/C(=C\C=C2/CCC[C@]3(C)[C@@H]([C@H](C)CN4CCO[C@H](C(F)F)C4)CC[C@@H]23)C[C@@H](O)C[C@@H]1O` [Compound D005, (1R,3S,Z)-5-(2-((1R,3aS,7aR,E)-1-((S)-1-((S)-2-(difluoromethyl)morpholino)propan-2-yl)-7a-methyloctahydro-4H-inden-4-ylidene)ethylidene)-4-methylenecyclohexane-1,3-diol], the EC50 was in the range of 10 to 100 nM.
On to `C=C1/C(=C\C=C2/CCC[C@]3(C)[C@@H]([C@H](C)CN4CCO[C@@H](C(F)F)C4)CC[C@@H]23)C[C@@H](O)C[C@@H]1O` [Compound D006, (1R,3S,Z)-5-(2-((1R,3aS,7aR,E)-1-((S)-1-((R)-2-(difluoromethyl)morpholino)propan-2-yl)-7a-methyloctahydro-4H-inden-4-ylidene)ethylidene)-4-methylenecyclohexane-1,3-diol], for which the EC50 lay in the range of 10 to 100 nM.
The result for `C=C1[C@H](O)CC(=C/C=C2\CCC[C@]3(C)[C@@H]([C@H](C)CN4CCO[C@@H](C)C4)CC[C@@H]23)C[C@H]1O` [Compound D010, (1R,3R)-5-(2-((1R,3aS,7aR,E)-7a-methyl-1-((S)-1-((S)-2-methylmorpholino)propan-2-yl)-octahydro-4H-inden-4-ylidene)ethylidene)-2-methylene-cyclohexane-1,3-diol] reads 1 to 10 nM; that for `C=C1[C@H](O)CC(=C/C=C2\CCC[C@]3(C)[C@@H]([C@H](C)CN4CCOC5(CC5)C4)CC[C@@H]23)C[C@H]1O` [Compound D011, (1R,3R)-5-(2-((1R,3aS,7aR,E)-1-((S)-1-(4-oxa-7-azaspiro[2.5]octan-7-yl)propan-2-yl)-7a-methyloctahydro-4H-inden-4-ylidene)ethylidene)-2-methylenecyclohexane-1,3-diol], 1 to 10 nM.
Turning to `C=C1[C@H](O)CC(=C/C=C2\CCC[C@]3(C)[C@@H]([C@H](C)CN4CCOC(C)(C)C4)CC[C@@H]23)C[C@H]1O` [Compound D014, (1R,3R)-5-(2-((1R,3aS,7aR,E)-1-((S)-1-(2,2-dimethylmorpholino)propan-2-yl)-7a-methyloctahydro-4H-inden-4-ylidene)ethylidene)-2-methylenecyclohexane-1,3-diol], the EC50 lay in the range of 1 to 10 nM.
For the molecule `C=C1[C@H](O)CC(=C/C=C2\CCC[C@]3(C)[C@@H]([C@H](C)CN4CCOC[C@@H]4C)CC[C@@H]23)C[C@H]1O` [Compound D015, (1R,3R)-5-(2-((1R,3aS,7aR,E)-7a-methyl-1-((S)-1-((S)-3-methylmorpholino)propan-2-yl)octahydro-4H-inden-4-ylidene)ethylidene)-2-methylenecyclohexane-1,3-diol], the EC50 fell in the range of 10 to 100 nM.
The figure for `C=C1/C(=C\C=C2/CCC[C@]3(C)[C@@H]([C@H](C)CCN4CCOCC4)CC[C@@H]23)C[C@@H](O)C[C@@H]1O` [Compound D022, (1R,3S,Z)-5-(2-((1R,3aS,7aR,E)-7a-methyl-1-((R)-4-morpholinobutan-2-yl)octahydro-4H-inden-4-ylidene)ethylidene)-4-methylenecyclohexane-1,3-diol] is 10 to 100 nM; for `C=C1[C@H](O)CC(=C/C=C2\CCC[C@]3(C)[C@@H]([C@H](C)CCN4C[C@@H](C)O[C@@H](C)C4)CC[C@@H]23)C[C@H]1O` [Compound D028, (1R,3R)-5-(2-((1R,3aS,7aR,E)-1-((R)-4-((2S,6R)-2,6-dimethylmorpholino)butan-2-yl)-7a-methyloctahydro-4H-inden-4-ylidene)ethylidene)-2-methylenecyclohexane-1,3-diol] it is 1 to 10 nM.
